In BigSolDB 2.1:

O=C(N[C@H](Cc1c[nH]c2ccccc12)C(=O)O)OCC1c2ccccc2-c2ccccc21
Details | solubility (mole fraction)
in acetone, 283.15 K | 0.0377
in acetone, 288.15 K | 0.0387
in acetone, 293.15 K | 0.0407
in acetone, 298.15 K | 0.0432
in acetone, 303.15 K | 0.0456
in acetone, 308.15 K | 0.0483
in acetone, 313.15 K | 0.0533
in acetone, 318.15 K | 0.059
in acetone, 323.15 K | 0.0651
in acetonitrile, 283.15 K | 0.00128
in acetonitrile, 288.15 K | 0.0015
in acetonitrile, 293.15 K | 0.00164
in acetonitrile, 298.15 K | 0.00197
in acetonitrile, 303.15 K | 0.00229
in acetonitrile, 308.15 K | 0.00296
in acetonitrile, 313.15 K | 0.00382
in acetonitrile, 318.15 K | 0.00498
in acetonitrile, 323.15 K | 0.0067
in ethanol, 283.15 K | 0.00439
in ethanol, 288.15 K | 0.00448
in ethanol, 293.15 K | 0.00492
in ethanol, 298.15 K | 0.00538
in ethanol, 303.15 K | 0.00604
in ethanol, 308.15 K | 0.00688
in ethanol, 313.15 K | 0.00763
in ethanol, 318.15 K | 0.00893
in ethanol, 323.15 K | 0.0103
in ethyl acetate, 283.15 K | 0.00673
in ethyl acetate, 288.15 K | 0.00688
in ethyl acetate, 293.15 K | 0.00733
in ethyl acetate, 298.15 K | 0.0079
in ethyl acetate, 303.15 K | 0.00866
in ethyl acetate, 308.15 K | 0.00931
in ethyl acetate, 313.15 K | 0.0101
in ethyl acetate, 318.15 K | 0.0111
in ethyl acetate, 323.15 K | 0.0123
in isobutanol, 283.15 K | 0.00112
in isobutanol, 288.15 K | 0.00118
in isobutanol, 293.15 K | 0.00147
in isobutanol, 298.15 K | 0.0019
in isobutanol, 303.15 K | 0.00222
in isobutanol, 308.15 K | 0.00244
in isobutanol, 313.15 K | 0.00294
in isobutanol, 318.15 K | 0.00363
in isobutanol, 323.15 K | 0.00458
in isopropanol, 283.15 K | 0.00176
in isopropanol, 288.15 K | 0.00206
in isopropanol, 293.15 K | 0.00244
in isopropanol, 298.15 K | 0.00309
in isopropanol, 303.15 K | 0.00365
in isopropanol, 308.15 K | 0.00469
in isopropanol, 313.15 K | 0.00545
in isopropanol, 318.15 K | 0.00642
in isopropanol, 323.15 K | 0.00814
in methanol, 283.15 K | 0.00434
in methanol, 283.16 K | 0.0044
in methanol, 283.17 K | 0.00446
in methanol, 283.18 K | 0.00452
in methanol, 283.19 K | 0.00458
in methanol, 288.15 K | 0.00437
in methanol, 288.16 K | 0.00443
in methanol, 288.17 K | 0.00449
in methanol, 288.18 K | 0.00455
in methyl acetate, 283.15 K | 0.00812
in methyl acetate, 288.15 K | 0.00881
in methyl acetate, 293.15 K | 0.0097
in methyl acetate, 298.15 K | 0.0102
in methyl acetate, 303.15 K | 0.0112
in methyl acetate, 308.15 K | 0.0126
in methyl acetate, 313.15 K | 0.014
in methyl acetate, 318.15 K | 0.0159
in methyl acetate, 323.15 K | 0.0174
in n-butanol, 283.15 K | 0.00247
in n-butanol, 288.15 K | 0.00264
in n-butanol, 293.15 K | 0.00297
in n-butanol, 298.15 K | 0.0034
in n-butanol, 303.15 K | 0.00417
in n-butanol, 308.15 K | 0.0046
in n-butanol, 313.15 K | 0.00552
in n-butanol, 318.15 K | 0.00656
in n-butanol, 323.15 K | 0.00807
in n-butyl acetate, 283.15 K | 0.00381
in n-butyl acetate, 288.15 K | 0.00396
in n-butyl acetate, 293.15 K | 0.0042
in n-butyl acetate, 298.15 K | 0.00449
in n-butyl acetate, 303.15 K | 0.00481
in n-butyl acetate, 308.15 K | 0.00533
in n-butyl acetate, 313.15 K | 0.00581
in n-butyl acetate, 318.15 K | 0.00636
in n-butyl acetate, 323.15 K | 0.00743
in n-propanol, 283.15 K | 0.00255
in n-propanol, 288.15 K | 0.003
in n-propanol, 293.15 K | 0.00336
in n-propanol, 298.15 K | 0.00378
in n-propanol, 303.15 K | 0.00422
in n-propanol, 308.15 K | 0.0049
in n-propanol, 313.15 K | 0.00587
in n-propanol, 318.15 K | 0.00683
in n-propanol, 323.15 K | 0.00825
in n-propyl acetate, 283.15 K | 0.00437
in n-propyl acetate, 288.15 K | 0.00461
in n-propyl acetate, 293.15 K | 0.00506
in n-propyl acetate, 298.15 K | 0.0055
in n-propyl acetate, 303.15 K | 0.00595
in n-propyl acetate, 308.15 K | 0.00658
in n-propyl acetate, 313.15 K | 0.0071
in n-propyl acetate, 318.15 K | 0.00793
in n-propyl acetate, 323.15 K | 0.00903
